From paper PMC10226132, “First-in-Class Selective Inhibitors of the Lysine Acetyltransferase KAT8” (Journal of Medicinal Chemistry, 2023)

Key:
[1] = molecular target: T1, KAT8 (Homo sapiens, UniProt Q9H7Z6); test: Preincubation and jump-dilution analysis of KAT8 mode of inhibition; type: biochemical; details: for time-dependent inhibition of KAT8 (preincubation assay): 12.5 μM inhibitor, preincubation 5-120 min; for KAT8 activity regained after inhibitor dilution (jump-dilution): 10× IC50 (121 μM for 19, 81 μM for 34), 100-fold dilution, any timepoint 10-240 min
T1 construct: using the previously purified KAT8 (173–458, 5 nM); 6xHis tag with TEV protease cleavage site (N, cleaved yes); made in house; host or cells: E. coli BL21(DE3)
T1 sequence (Q9H7Z6 173-458): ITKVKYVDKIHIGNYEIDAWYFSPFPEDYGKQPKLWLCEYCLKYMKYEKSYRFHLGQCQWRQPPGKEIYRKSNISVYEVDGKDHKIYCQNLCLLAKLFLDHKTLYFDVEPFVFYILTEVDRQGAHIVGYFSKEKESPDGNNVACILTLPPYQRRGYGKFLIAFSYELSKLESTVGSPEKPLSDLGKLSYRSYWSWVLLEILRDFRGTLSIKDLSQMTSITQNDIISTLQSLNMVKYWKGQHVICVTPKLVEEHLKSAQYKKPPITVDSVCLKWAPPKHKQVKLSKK
Method: The preincubation assay was performed by incubating KAT8 with the relevant inhibitor (12.5 μM final concentration) for 5, 10, 20, 30, 60, and 120 min at rt. The activity of KAT8 was then measured as described in the “Radioactive KAT8 inhibition assay” paragraph of the Experimental Section. […] Fifty microliters were then incubated at rt for 10, 20, 30, 60, 120, and 240 min, and the mixtures were then processed as described in the “Radioactive KAT8 inhibition assay” paragraph of the Experimental section. Radioactive signal was normalized to the DMSO control reaction incubated for 240 min, converted in percent of KAT8 activity after 240 min, and plotted against each measurement time point. Experiments were performed in biological triplicates.

[2] = test system: H3K27Ac in HT29 cells; test: Immunofluorescence of H3K27Ac in HT29 cells; type: cell-based, human; details: 24 h, vs control
Method: For IF analysis, 1 × 10^5 HT-29 cells were grown on sterile coverslips. After 24 h, cells were exposed to different compounds for 24 h. IF staining for different acetylated lysine residues of histone H3 (H3K27Ac) and H4 (H4K16Ac) were carried out on PFA-fixed cells blocked with 20% goat serum in PBS and incubated overnight at 4 °C with primary rabbit monoclonal antibodies histone H3K27Ac (D5E4, Rabbit mAb#8173) and H4K16Ac (E2B8W, Rabbit mAb#13534, Cell Signalling Technology). Primary antibodies were detected using rabbit anti-IgG secondary antibodies conjugated with Cy3 (Jackson Immunoresearch 711-165-152). DNA was stained using 0.05 μg/mL 4′,6-diamidino-2-phenylindole (DAPI). The samples were acquired using an Olympus AX70 (Olympus America Inc.) microscope. Serial Z stacks of 0.4 μm thickness were acquired, taking care to cover the entire cell volume. For quantification of fluorescence intensity signals, images of untreated or treated cells were analyzed and processed using opensource Cell Profiler 4.1.3 image analysis software (https://cellprofiler.org/) to measure fluorescence-integrated intensity values for antibody binding relating to individual cells as previously reported.[67]

[3] = test system: HCT116 cells; test: MTT cell proliferation assay, HCT116; type: cell-based, human; details: for antiproliferative activity in HCT116: 10, 25, 50, 100 μM, 72 h; for IC50: Homo sapiens, HCT-116, 72 h treatment, MTT
From the text: Human commercially available AML U937, breast cancer MCF7, lung adenocarcinoma NCI-H460, H1299 and A-549, glioblastoma U251, B lymphocyte AHH1 cell lines were maintained in compete 10% foetal bovine serum (FBS,) RPMI 1640 (Euroclone, Milan, IT) medium. Human commercially available colon cancer HCT116 and HT29 lines and cervix adenocarcinoma HeLa cells were maintained in compete 10% FBS Dulbecco’s Modified Eagle Medium (DMEM) high glucose medium (Euroclone). L-Glutamine, FBS, and penicillin streptomycin mixture added to medium were obtained from Euroclone. All cell lines were cultured at 37 °C in a humidified atmosphere of 5% CO2:95% air and were tested for mycoplasma contamination routinely by RT-PCR.
For analysis of cell proliferation, cells were plated in sextuplicate on 96-well plates in complete media. After 24 h, cells were exposed to different drugs for 72 h. The inhibitory effect of different drugs was assessed by MTT (Sigma, St. Louis, MO, USA) colorimetric assays as previously reported.[67] Aqueous DMSO (0.5% v/v) was used as a control (untreated). The results are reported as “viability of drug-treated cells/viability of untreated cells” × 100 and represent the average ±SD of three independent experiments. IC50 values were using fitted by nonlinear regression using GraphPad Prism 8.0.

[4] = test system: H4K16Ac in HT29 cells; test: Western blot of H4K16Ac and KAT8 levels in HT29 cells; type: cell-based, human; details: increasing concentrations, 24 h
Method: For WB experiments, the cells were lysed in RIPA buffer supplemented with 1× […] protease inhibitor cocktail (Sigma-Aldrich, S8830); 20 μg of total protein was resolved in 13.5% gels by SDS-PAGE. Then, the proteins were transferred to nitrocellulose membranes (Biorad Laboratories). Membranes were blocked for 1 h and incubated overnight with the appropriate primary antibody at 4 °C. After incubation, membranes were washed and incubated with the appropriate secondary antibody (Biorad Laboratories) for 1 h at room temperature. Following primary rabbit monoclonal antibodies H4K16Ac (1:1000, E2B8W, Rabbit mAb#13534, Cell Signalling Technology), KAT8 (1:1000, D5T3R Rabbit mAb #46862 Cell Signalling Technology), GAPDH (1:1000, sc-32233, Santa Cruz Biotechnologies), anti-LC3B (Sigma-Aldrich, L7543), anti-SQSTM1/p62 (Santa Cruz Biotechnology, sc-28,359), and anti-GAPDH (Santa Cruz Biotechnology, sc-32,233). Secondary antibodies: anti-mouse (Bio-Rad Laboratories, 1,706,515) or anti-rabbit (Bio-Rad Laboratories, 1,706,516) IgG-horseradish peroxidase-conjugated antibodies. Detection was performed by ECL Western Blotting Substrate (Biorad Laboratories). Images of blots were acquired through the ChemiDoc Imaging Systems (Biorad Laboratories). The band signals were quantified using ImageJ, and values were normalized to relative controls, depending on the analysis.

[5] = test system: H1299-EGFP-LC3 cells; test: Fluorescence microscopy of autophagosomes in EGFP-LC3 H1299 cells; type: cell-based, human; details: increasing doses, 48 h
Method: The stable EGFP-LC3 H1299 cell line was used to detect autophagic structures by fluorescence spinning disk microscopy. Cells were grown on glass coverslips, treated with compounds for 48 h and fixed in 3.7% formaldehyde (Sigma, F1635) DNA was counterstained with 0.05 μg/mL DAPI (4,6-diamidino-2-phenylindole; Sigma-Aldrich, D9542). At least 500 cells were counted for each experimental point, and cells showing ≥15 dots were considered positive. Dots were counted using a pipeline created in a previous work on the CellProfiler software.[68] Data are presented as median with interquartile range. Samples were observed under a Nikon Eclipse Ti2 microscope with a 60× (1.4 NA) objective, equipped with a CrestOptics X-Light V3 confocal spinning disk and a back illuminated Kinetix sCMOS camera.

| SMILES | time-dependent inhibition of KAT8 (preincubation assay) [1] | KAT8 activity regained after inhibitor dilution (jump-dilution) [1] [%] | levels of histone H3K27Ac (IF) [2] | antiproliferative activity in HCT116 [3] | IC50 [3] [µM] | KAT8 expression level (WB) [4] | histone H4K16 acetylation levels (WB) [4] | EGFP-LC3 dots per cell [5] |
| --- | --- | --- | --- | --- | --- | --- | --- | --- |
| CC1=NN(c2ccc(C(=O)O)cc2)C(=O)/C1=C\c1ccc[nH]1 [Compound 19, (Z)-4-(4-((1H-Pyrrol-2-yl)methylene)-3-methyl-5-oxo-4,5-dihydro-1H-pyrazol-1-yl)benzoic Acid] | did not observe time-dependent inhibition | ~90 | no significant differences | dose-dependent antiproliferative effects | 39.4 ± 8.2 | no consistent variation in KAT8 levels | induced a decrease in histone H4 acetylation levels | significantly increased |
| O=C(O)c1ccc(N2N=C(c3ccccc3)/C(=C/c3ccc[nH]3)C2=O)cc1 [Compound 34, (Z)-4-(4-((1H-Pyrrol-2-yl)methylene)-5-oxo-3-phenyl-4,5-dihydro-1H-pyrazol-1-yl)benzoic Acid] | did not observe time-dependent inhibition | ~90 | no significant differences | dose-dependent antiproliferative effects | 46.6 ± 11.5 | no consistent variation in KAT8 levels | induced a decrease in histone H4 acetylation levels | significantly increased |
